The text below walks through data of patent publication US10874683B2, “N4-hydroxycytidine and derivatives and anti-viral uses related thereto” (Emory University, priority 2016, dated 2020).

Series [1] deals with VEEV. Briefly: microbe, parasite or virus in culture. The series is classed as cell-based. Conditions: Venezuelan equine encephalitis virus, Astrocyte; for inhibition at 10 µM: read-out: Viral Inh. 10 uM; for inhibition at 50 µM: read-out: Viral Inh. 50 uM.
Series [2] has as its system VEEV. The series is described as follows: microbe, parasite or virus in culture. The series is classed as cell-based. Conditions: Venezuelan equine encephalitis virus, HeLa; for inhibition at 10 µM: read-out: Viral Inh. 10 uM; for inhibition at 50 µM: read-out: Viral Inh. 50 uM.
The subject of another series is U2OS cell line. Briefly: Cell viability, U2OS cell line (Chikungunya screen).
A further series concerns Chikungunya virus. Briefly: Chikungunya virus (MOI 0.5) viral inhibition in U2OS cell line. Format: cell-based. Conditions: for inhibition at 10 µM: read-out: Viral Inh. 10 uM; for inhibition at 50 µM: read-out: Viral Inh. 50 uM.
The next series deals with SARS Coronavirus Orbani. The series is described as follows: microbe, parasite or virus in culture. Format: cell-based. Conditions: Severe acute respiratory syndrome coronavirus, Vero 76.
Another series can be described thus: in vitro. Conditions: African green monkey.
Series [3] can be described thus: Cytotoxicity in HG23 cells (Norovirus screen). Format: cell-based. Conditions: human.
Another series concerns Norovirus GT1. The series is described as follows: Norovirus GT1 antiviral screening in HG23 cells. Format: cell-based.
Another series relates to VERO. The series is described as follows: Cell viability, VERO (MERV screen). Format: cell-based.
The next series has as its system MERV. The series is described as follows: MERV (MOI 0.4) viral inhibition in VERO. Format: cell-based. Conditions: for inhibition at 10 µM: read-out: Viral Inh. 10 uM; for inhibition at 50 µM: read-out: Viral Inh. 50 uM.

Each structure is given as a SMILES string. Values after ≈ are worked out from the molar mass of the structure shown. Where two headings read alike, the source gives them in different places.

In the case of `O=c1nc(NO)ccn1[C@@H]1O[C@H](CO)[C@H](O)C1O` (stereo partly drawn) [drawing 91], in the series on VEEV [1], the inhibition at 10 µM was 99% and the inhibition at 50 µM was 100%. In the series with Astrocytes, the “Cell Viability 10 uM” value is given as 98% ± 12% (n = 3) and the “Cell Viability 50 uM” value is on record as 86% ± 5% (n = 3).

Take `CCCCCCCNC(=O)ONc1ccn([C@@H]2O[C@H](CO)[C@H](O)C2O)c(=O)n1` (stereo partly drawn) [drawing 90]: in the series on HeLa, the “Cell Viability 10 uM” value is listed as 151% ± 16% (n = 4) and the “Cell Viability 50 uM” value is 126% ± 7% (n = 4). Moreover, in the series with VEEV [2], the concentration for a half-maximal effect (EC50) came to 6 µM, the inhibition at 10 µM turned out to be 93% and the inhibition at 50 µM worked out at 100%.

Regarding `O=c1nc(NO)ccn1[C@@H]1O[C@H](CO)[C@H](O)C1O` (stereo partly drawn) [drawing 81], in the series on U2OS cell line, the “Cell Viability 10 uM” value is 97% ± 5% (n = 4) and the “Cell Viability 50 uM” value was 79% ± 10% (n = 4). In addition, in the series with Chikungunya virus, the inhibition at 10 µM was found to be 80% and the inhibition at 50 µM stood at 100%.

As for `O=c1nc(NO)c(F)cn1[C@@H]1O[C@H](CO)[C@H](O)C1O` (stereo partly drawn) [drawing 84], in the series on U2OS cell line, the “Cell Viability 10 uM” value is reported as 81% ± 4% (n = 4) and the “Cell Viability 50 uM” value is recorded as 53% ± 2% (n = 4). Moreover, in the series on Chikungunya virus, the inhibition at 10 µM came out at 8% and the inhibition at 50 µM came out at 51%.

Compound `CONc1ccn([C@@H]2O[C@H](CO)[C@H](O)C2O)c(=O)n1` (stereo partly drawn) came in with a concentration for a half-maximal effect (EC50) with SARS Coronavirus Orbani above 100 µg/mL. This compound also had a CC50 in the series “in vitro” above 100 µg/mL.

For the compound `CCCCCCCOC(=O)ONc1ccn([C@@H]2O[C@H](CO)[C@H](O)C2O)c(=O)n1` (stereo partly drawn) [drawing 92], in the series with VEEV [1], the inhibition at 10 µM is 94% and the inhibition at 50 µM came out at 100%. For the same compound, in the series with Astrocytes, the “Cell Viability 10 uM” value is 99% ± 9% (n = 3) and the “Cell Viability 50 uM” value is 94% ± 10% (n = 3).

On to `O=c1nc(NO)ccn1[C@@H]1O[C@H](CO)[C@H](O)C1O` (stereo partly drawn) [drawing 76], for which the values for the CC50 (in [3]; in “in vitro”) were above 100 µg/mL and 36 µg/mL (≈ 139 µM), respectively. Besides, the EC50 in the series with SARS Coronavirus Orbani is below 0.1 µg/mL; in the series with Norovirus GT1, above 100 µg/mL.

Consider `CCCCCCCNC(=O)ONc1ccn([C@@H]2O[C@H](CO)[C@H](O)C2O)c(=O)n1` (stereo partly drawn) [drawing 100], for which, in the series with VERO, the “Cell Viability 10 uM” value is recorded as 118% ± 15% (n = 4) and the “Cell Viability 50 uM” value is given as 91% ± 39% (n = 4). In the series on MERV, the inhibition at 10 µM was determined as 86% and the inhibition at 50 µM turned out to be 98%.

As for `CC(C)OC(=O)[C@H](C)NP(=O)(OC[C@H]1O[C@@H](n2ccc(NO)nc2=O)C(O)[C@H]1O)Oc1ccccc1` (stereo partly drawn) [drawing 83], in the series on U2OS cell line, the “Cell Viability 10 uM” value is 99% ± 6% (n = 4) and the “Cell Viability 50 uM” value is given as 99% ± 8% (n = 4). For the same compound, in the series on Chikungunya virus, the inhibition at 10 µM was determined as 3% and the inhibition at 50 µM was 36%.

In the series with SARS Coronavirus Orbani, `CCCCCCCCC(=O)ONc1ccn([C@@H]2O[C@H](CO)[C@H](O)C2O)c(=O)n1` (stereo partly drawn) had an EC50 of 0.19 µg/mL (≈ 0.476 µM). In addition, the CC50 in “in vitro” was found to be 36 µg/mL (≈ 90.1 µM).

For `CCCCCCCOC(=O)ONc1ccn([C@@H]2O[C@H](CO)[C@H](O)C2O)c(=O)n1` (stereo partly drawn) [drawing 82], in the series on U2OS cell line, the “Cell Viability 10 uM” value was 93% ± 4% (n = 4) and the “Cell Viability 50 uM” value is on record as 78% ± 8% (n = 4). In the series on Chikungunya virus, the inhibition at 10 µM worked out at 72% and the inhibition at 50 µM came to 98%.

With `CCCCCCCOC(=O)ONc1ccn([C@@H]2O[C@H](CO)[C@H](O)C2O)c(=O)n1` (stereo partly drawn) [drawing 97], in the series on VERO, the “Cell Viability 10 uM” value was 84% ± 8% (n = 4) and the “Cell Viability 50 uM” value is recorded as 58% ± 2% (n = 4). Besides, in the series on MERV, the inhibition at 10 µM was 99% and the inhibition at 50 µM turned out to be 99%.

Take `O=c1nc(NO)ccn1[C@@H]1O[C@H](CO)[C@H](O)C1O` (stereo partly drawn) [drawing 86]: in the series with HeLa, the “Cell Viability 10 uM” value is listed as 116% ± 24% (n = 4) and the “Cell Viability 50 uM” value is reported as 61% ± 8% (n = 4). For the same compound, in the series on VEEV [2], the concentration giving a half-maximal response (EC50) came to 1.24 µM, the inhibition at 10 µM was determined as 100% and the inhibition at 50 µM worked out at 100%.

Regarding `CC1(O)[C@@H](O)[C@@H](CO)O[C@H]1n1ccc(NO)nc1=O` (stereo partly drawn), the CC50 (in [3]; in the series “in vitro”) was above 100 µg/mL throughout. For the same compound, the half-maximal effective concentration (EC50) in the series with SARS Coronavirus Orbani and in the series with Norovirus GT1 was above 100 µg/mL each time.

As to `CC(C)OC(=O)[C@H](C)NP(=O)(OC[C@H]1O[C@@H](n2ccc(NO)nc2=O)C(O)[C@H]1O)Oc1ccccc1` (stereo partly drawn) [drawing 88], in the series on HeLa, the “Cell Viability 10 uM” value is on record as 137% ± 16% (n = 4) and the “Cell Viability 50 uM” value is recorded as 134% ± 16% (n = 4). In the series on VEEV [2], the EC50 came to 16.2 µM, the inhibition at 10 µM turned out to be 73% and the inhibition at 50 µM was found to be 100%.

`O=c1nc(NO)c(F)cn1[C@@H]1O[C@H](CO)[C@H](O)C1O` (stereo partly drawn) [drawing 89]: in the series with HeLa, the “Cell Viability 10 uM” value is on record as 55% ± 4% (n = 4) and the “Cell Viability 50 uM” value is 36% ± 2% (n = 4). In the series with VEEV [2], the inhibition at 10 µM came out at 61% and the inhibition at 50 µM came to 98%.

On to `CCCCCCCNC(=O)ONc1ccn([C@@H]2O[C@H](CO)[C@H](O)C2O)c(=O)n1` (stereo partly drawn) [drawing 85], for which, in the series with U2OS cell line, the “Cell Viability 10 uM” value is reported as 105% ± 2% (n = 4) and the “Cell Viability 50 uM” value is 96% ± 11% (n = 4). In addition, in the series on Chikungunya virus, the inhibition at 10 µM worked out at 14% and the inhibition at 50 µM worked out at 70%.

Take `CCCCCCCNC(=O)ONc1ccn([C@@H]2O[C@H](CO)[C@H](O)C2O)c(=O)n1` (stereo partly drawn) [drawing 95]: in the series on VEEV [1], the inhibition at 10 µM turned out to be 51% and the inhibition at 50 µM was 37%. In the series on Astrocytes, the “Cell Viability 10 uM” value is given as 98% ± 12% (n = 3) and the “Cell Viability 50 uM” value is 85% ± 19% (n = 3).

Take `CCCCCCCOC(=O)ONc1ccn([C@@H]2O[C@H](CO)[C@H](O)C2O)c(=O)n1` (stereo partly drawn) [drawing 78]: the response in the series on SARS Coronavirus Orbani was half-maximal at 0.28 µg/mL (≈ 0.698 µM) (EC50). This compound also displayed a CC50 in “in vitro” above 100 µg/mL.

For `CC(C)OC(=O)[C@H](C)NP(=O)(OC[C@H]1O[C@@H](n2ccc(NO)nc2=O)C(O)[C@H]1O)Oc1ccccc1` (stereo partly drawn) [drawing 93], in the series with VEEV [1], the inhibition at 10 µM came to 49% and the inhibition at 50 µM came out at 96%. In addition, in the series with Astrocytes, the “Cell Viability 10 uM” value was 102% ± 16% (n = 3) and the “Cell Viability 50 uM” value is 100% ± 17% (n = 3).

For `CC(C)OC(=O)[C@H](C)NP(=O)(OC[C@H]1O[C@@H](n2ccc(NO)nc2=O)C(O)[C@H]1O)Oc1ccccc1` (stereo partly drawn) [drawing 98], in the series with VERO, the “Cell Viability 10 uM” value is 103% ± 14% (n = 4) and the “Cell Viability 50 uM” value is listed as 102% ± 36% (n = 4). Moreover, in the series with MERV, the inhibition at 10 µM came out at 29% and the inhibition at 50 µM came out at 85%.

Take `O=c1nc(NO)ccn1[C@@H]1O[C@H](CO)[C@H](O)C1O` (stereo partly drawn) [drawing 96]: in the series with VERO, the “Cell Viability 10 uM” value was 75% ± 6% (n = 4) and the “Cell Viability 50 uM” value is 47% ± 3% (n = 4). For the same compound, in the series with MERV, the inhibition at 10 µM came to 99% and the inhibition at 50 µM was found to be 100%.

Take `CCCCCCCOC(=O)ONc1ccn([C@@H]2O[C@H](CO)[C@H](O)C2O)c(=O)n1` (stereo partly drawn) [drawing 87]: in the series with HeLa, the “Cell Viability 10 uM” value was 116% ± 20% (n = 4) and the “Cell Viability 50 uM” value is on record as 85% ± 8% (n = 4). Also, in the series on VEEV [2], the 50% effective concentration (EC50) worked out at 0.57 µM, the inhibition at 10 µM is 100% and the inhibition at 50 µM was determined as 100%.

As a reminder, the EC50 is the midpoint of the concentration-response curve.
